Consider 9 compounds from patent US12378252B2, “Pyrrolopyrazole derivatives, preparation method thereof and application thereof in medicine” (SHANGHAI MEDICILON INC., priority 2019, dated 2025).

Where a name gives a salt, the structure may show the parent alone.

The target in this test is T1, H+/K+ ATPase (Oryctolagus cuniculus, UniProt P27112).
T1 construct: The stomach tissue of the rabbit was separated; from tissue; host or cells: rabbit stomach (fundus) mucosa, membrane fraction obtained by differential and Ficoll centrifugation
T1 sequence (P27112 whole entry): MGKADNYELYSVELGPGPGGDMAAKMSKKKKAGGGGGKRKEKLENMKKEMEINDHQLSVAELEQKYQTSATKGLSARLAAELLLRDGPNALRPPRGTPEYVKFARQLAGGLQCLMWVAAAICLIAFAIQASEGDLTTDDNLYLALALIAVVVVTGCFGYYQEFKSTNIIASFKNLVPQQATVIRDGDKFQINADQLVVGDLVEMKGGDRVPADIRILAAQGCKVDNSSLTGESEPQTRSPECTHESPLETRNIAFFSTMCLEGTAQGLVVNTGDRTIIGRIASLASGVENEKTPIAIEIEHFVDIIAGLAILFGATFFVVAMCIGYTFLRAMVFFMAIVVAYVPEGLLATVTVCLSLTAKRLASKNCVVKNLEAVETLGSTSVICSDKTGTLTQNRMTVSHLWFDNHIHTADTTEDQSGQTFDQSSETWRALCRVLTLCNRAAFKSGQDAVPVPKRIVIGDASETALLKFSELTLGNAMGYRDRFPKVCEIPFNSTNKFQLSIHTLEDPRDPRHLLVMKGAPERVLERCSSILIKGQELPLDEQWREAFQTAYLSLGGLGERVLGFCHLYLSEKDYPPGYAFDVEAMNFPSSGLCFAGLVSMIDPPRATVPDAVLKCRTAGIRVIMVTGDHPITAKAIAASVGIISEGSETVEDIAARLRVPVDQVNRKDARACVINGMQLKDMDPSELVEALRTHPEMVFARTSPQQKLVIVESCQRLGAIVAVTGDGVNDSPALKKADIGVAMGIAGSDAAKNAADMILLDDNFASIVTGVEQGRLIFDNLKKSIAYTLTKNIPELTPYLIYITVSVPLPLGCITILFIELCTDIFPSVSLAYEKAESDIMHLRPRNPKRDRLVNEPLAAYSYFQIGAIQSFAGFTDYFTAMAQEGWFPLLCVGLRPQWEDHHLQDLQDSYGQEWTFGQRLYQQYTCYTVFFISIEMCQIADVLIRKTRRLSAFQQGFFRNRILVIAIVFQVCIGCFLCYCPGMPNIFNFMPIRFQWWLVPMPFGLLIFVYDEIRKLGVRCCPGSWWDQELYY
T1 sequence (P18597 whole entry partner): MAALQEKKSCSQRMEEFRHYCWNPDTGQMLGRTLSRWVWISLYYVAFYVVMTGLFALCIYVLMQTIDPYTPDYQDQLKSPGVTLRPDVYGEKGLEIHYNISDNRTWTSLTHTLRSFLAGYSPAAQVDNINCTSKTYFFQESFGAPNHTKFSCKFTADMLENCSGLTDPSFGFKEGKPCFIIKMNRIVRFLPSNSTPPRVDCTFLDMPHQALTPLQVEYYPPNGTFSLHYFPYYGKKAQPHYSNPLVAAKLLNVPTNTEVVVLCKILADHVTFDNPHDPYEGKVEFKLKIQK
Description: determination of compounds' inhibition of H+/K+ ATPase enzyme activity (malachite green, OD 620 nm). The conditions noted are these: enzyme extracted from rabbit stomach tissue; pH 6.5; ATP 500 μM; 37° C. Type of test: biochemical. The source says: Test example: determination of compounds' inhibition of H^+/K+ATPase enzyme activity
The following experiment is used to determine the inhibitory effect of the compound of the present invention on the H^+/K+ATPase enzyme activity.
1. Experimental materials
Plate reader: SpectraMax M5 (MD)
Malachite Green (Sigma Aldrich, 213020-25G)
Ammonium molybdate (Sigma Aldrich, 277908-20G)
ATP (Sigma Aldrich, A1852-1VL).
Enzyme working solution: titrating the enzyme, diluting the enzyme with buffer 1, and during the reaction, taking 5 μl of the diluted solution into 50 μl reaction system.
ATP solution: 100 mM ATP was diluted to 5 mM with no K+buffer, and 5 μl of the diluted solution was added to the 50 μl reaction system, that is, the final concentration of ATP was 500 μM.
MLG color development liquid: 0.12% MLG, 7.5% ammonium molybdate, and […] Tween-20 was mixed as 100:25:2, and adding 15 μl of the mixture into each well during detection.
Buffer 1: 50 mM Tris-HCl pH 6.5, 5 mM magnesium chloride (magnesium chloride), 10 μM valinomycin (valinomycin).
Buffer 2: 50 mM Tris-HCl pH 6.5, 5 mM magnesium chloride (magnesium chloride), 10 μM valinomycin (valinomycin), 20 mM KCl.
Homogenization buffer: 10 mmol/L Tris-HCl, pH 6.8, 0.25M sucrose (sucrose), 1 mmol/LEDTA. 7.5% Ficoll layering solution: homogenization buffer+7.5% (W/W) 400 (Ficoll 400).
3.1. H^+/K^+ ATPase enzyme extraction
(1) The stomach tissue of the rabbit was separated, and the blood was washed with tap water, food residue.
(2) The fundus portion was thoroughly washed with pre-cooled NaCl solution to remove surface mucus.
(3) The stripped mucosa was filled into a sample bag or a 50 ml centrifuge tube, and quickly freezing in a liquid nitrogen tank.
(4) The tissue was removed, minced with surgical scissors, and a pre-cooled homogenization buffer (4 ml/g tissue) was added and homogenized in a tissue homogenizer for 2 to 10 minutes.
(5) After homogenization, if there were larger tissue particles, they could be removed by centrifugation (600 g, 10 min), and then the supernatant was transferred to a clean centrifuge tube. After centrifugation at 20000 g for 30 minutes, then the supernatant was transferred to a clean centrifuge tube at 100000 g for 90 minutes and the precipitate was collected.
(6) Resuspending the precipitate with homogenization buffer, blowing uniformly, adding 7.5% Ficoll layering solution at equal ratio, centrifuging at 100000 g for 90 minutes, and collecting the precipitate.
(7) Resuspending the precipitate with homogenization buffer, blowing uniformly, and the protein concentration was measured by Bradford. Freezing in tubes at −80° C. for later use.
3.2. H^+/K^+ ATPase activity experiment
(1) Adding 35 μl of reaction buffer to each experimental well, and then added 35 μl of buffer 1.
(2) Adding 5 μl buffer 1 containing 10% DMSO to the whole enzyme and buffer well.
(3) Adding 5 μl of 10× compound working solution to the compound well and mixing well.
(4) Adding 5 of buffer 1 to the buffer well.
(5) Adding 5 μl of 10× enzyme working solution to the remaining wells, mixing and incubating at 37° C. for 30 minutes.
(6) Adding 5 μl of 10XATP working solution to all experimental wells, and incubating at 37° C. for 20 min.
(7) Adding 15 μl MLG chromogenic solution to all experimental wells, and uniformly mixing and incubating at room temperature for 5-30 min.
(8) The reading number of 620 nm was detected by an M5 instrument.
The inhibition rate is calculated with the following formula: Inhibition rate (IC50)=[OD (sample well)−OD (full enzyme well containing potassium chloride)]/[(OD (full enzyme well containing potassium chloride)−(OD (full enzyme well without potassium chloride Enzyme hole)]×100%
The compound `CN1Cc2nn(Cc3cccc(C(=O)OC(C)(C)C(N)=O)c3)c(-c3ccccc3F)c2C1` [Example 5, 1-amino-2-methyl-1-oxopropan-2-yl-3-((3-(2-fluorophenyl)-5-methyl-5,6-dihydropyrrolo [3,4-c]pyrazole-2(4H)-yl)methyl)benzoate] registered an IC50 of 225 nM.

Take `Cc1ccccc1-c1c2c(nn1Cc1cccc(C(=O)OC(C)(C)C)c1)CN(C)C2` [Example 8, 3-((5-Methyl-3-(o-tolyl)-5,6-dihydropyrrolo[3,4-c]pyrazole-2(4H)-yl)methyl) benzene Tert-butyl formate]: it took 589 nM to reach half-maximal inhibition (IC50).

`COC(=O)c1cccc(Cn2nc3c(c2-c2ccccc2F)CN(C)C3)c1` [Example 1, 3-((3-(2-fluorophenyl)-5-methyl-5,6-dihydropyrrolo[3,4-c]pyrazole-2(4H)-yl)methyl)benzoic acid ester]: the IC50 turned out to be 77.6 nM.

With `COC(=O)c1cccc(Cn2nc3c(c2-c2ccc(F)cc2F)CN(C)C3)c1` [Example 9, 3-((3-(2,4-Difluorophenyl)-5-methyl-5,6-dihydropyrrolo [3,4-c]pyrazole-2(4H)-yl) Methyl) methyl benzoate], the IC50 was determined as 61.4 nM.

`COC(=O)c1cc(Cn2nc3c(c2-c2ccccc2C)CN(C)C3)ccc1F` [Example 7, 2-Fluoro-5-((5-methyl-3-(o-tolyl)-5,6-dihydropyrrole [3,4-c]pyrazole-2 (4H)-yl)methane Yl) methyl benzoate] registered an IC50 of 39 nM.

In turn, `CCOC(=O)c1cccc(Cn2nc3c(c2-c2ccccc2F)CN(C)C3)c1` [Example 3, 3-((3-(2-fluorophenyl)-5-methyl-5,6-dihydropyrrolo[3,4-c]pyrazole-2(4H)-yl)methyl) ethyl benzoate] had an IC50 of 90.4 nM.

The compound `CCCCOC(=O)c1cccc(Cn2nc3c(c2-c2ccccc2F)CN(C)C3)c1` [Example 2, 3-((3-(2-fluorophenyl)-5-methyl-5,6-dihydropyrrolo [3,4-c]pyrazole-2(4H)-yl)methyl)butyl benzoate] returned a half-maximal inhibitory concentration (IC50) of 96.8 nM.

`COC(=O)c1cccc(Cn2nc3c(c2-c2ccccc2C)CN(C)C3)c1` [Example 6, 3-((5-methyl-3-(o-tolyl)-5,6-dihydropyrrolo[3,4-c]pyrazole-2(4H)-yl)methyl) Methyl benzoate] showed an IC50 of 36.6 nM.

The compound `CN1Cc2nn(Cc3cccc(C(=O)NC4CC4)c3)c(-c3ccccc3F)c2C1` [Example 4, N-cyclopropyl-3-((3-(2-fluorophenyl)-5-methyl-5,6-dihydropyrrolo[3,4-c]pyrazole-2(4H)-Yl)methyl)benzamide] showed an IC50 of 539 nM.

Usually IC50 stands for the concentration that gives 50% inhibition. Lower therefore signals higher potency.
